Experimental data taken from PMC9411704, “Assessment of the Carcinogenic Potential of Pretomanid in Transgenic Tg.rasH2 Mice” (International Journal of Toxicology, 2022).
Like-named read-outs stand apart in the source and are kept apart here.

Key:
[1] = Plasma exposure in the mouse micronucleus study; format: in vivo, mice
[2] = test system: Tg.rasH2 mice; settings: for Incidence of lung adenoma, multiple / Incidence of lung adenoma, single / Incidence of lung carcinoma / Incidence of lung tumors, combined / Incidence of thymus, thymoma / Incidence of urethra papilloma / Incidence of Harderian gland carcinoma / Incidence of Harderian gland adenoma / Incidence of hemangiosarcoma, combined / Incidence of hemangiosarcoma, multicentric (includes abdominal skin and thoracic wall) / Incidence of hemangiosarcoma, spleen / Incidence of hemangiosarcoma, uterus / Incidence of hemangiosarcoma, vagina / Survival rate / Incidence of hemangiosarcoma, kidney / Incidence of hemangiosarcoma, spinal cord, lumbar: 26 weeks
Procedure: The vehicle was 0.5% carboxymethylcellulose (CMC) with 0.1% Tween 80 (v/v). The vehicle and pretomanid formulations were administered to mice by oral gavage once daily at a dosing volume of 10 mL/kg. Individual dose volumes were calculated based on each animal’s most recently recorded body weight. The dose formulations were magnetically stirred at room temperature for at least 30 minutes prior to and during dosing. The positive control was urethane in 0.9% sodium chloride and was administered via intraperitoneal injection for a total of three times. The positive control formulation was allowed to stand at room temperature for at least 30 minutes and inverted several times prior to dose administration. Aliquots (0.5 to 1.0 mL) were collected from the top, bottom, and middle of the first (week 1), interim (week 13), and last (week 25) pretomanid dose formulations to assess the accuracy of the concentration and/or homogeneity.
Male and female Tg.rasH2 [CByB6F1-Tg(HRAS)2Jic (+/−hemizygous c-Ha-ras)] mice (n = 110/sex) approximately 5 weeks of age were assigned to the main cohort groups to assess carcinogenicity. Male and female wild type CByB6F1 mice [CByB6F1-Tg(HRAS)2Jic (−/−homozygous c-Ha-ras)] (n = 34/sex) approximately 6 weeks of age were assigned to the cohort of mice used to assess the toxicokinetics of pretomanid and its M50 metabolite. […] All mice were obtained from Taconic Biosciences (Germantown, NY). The supplier verified that the mice were murine pathogen-free and females were nulliparous and non-pregnant. At the time of dosing initiation (Day 1), the toxicokinetic mice were approximately 8 weeks of age. On Day 1 of the study, the body weights of the main cohort mice ranged from 19.2 to 25.9 grams (males) and from 15.9 to 20.4 grams (females), and the body weights of the TK cohort mice ranged from 23.4 to 30.2 grams (males) and from 17.6 to 23.5 grams (females).
This study assessed the carcinogenic potential of pretomanid following repeated oral gavage administration once daily for 26 weeks in hemizygous Tg.rasH2 [CByB6F1-Tg(HRAS)2Jic (+/− hemizygous c-Ha-ras)] mice. This study also evaluated the TK profile of pretomanid and metabolite M50 in wild-type CByB6F1 [CByB6F1-Tg(HRAS)2Jic (−/−homozygous c-Ha-ras)] mice. The study was conducted under GLP regulations.
For carcinogenicity assessment (main cohort), 25 mice/sex were included in the vehicle control and pretomanid-treated groups. At the time of dosing initiation (Day 1), the main cohort mice used for assessing carcinogenicity were approximately 7 weeks of age and weighed between 15.9 to 20.4 g (females) and 19.2 to 25.9 g (males). Male groups (Groups 2, 4, and 6) received pretomanid in vehicle at doses of 5, 15, and 40 mg/kg/day, respectively. Female groups (Groups 3, 5, and 7) received pretomanid in vehicle at doses of 10, 30, and 80 mg/kg/day. Positive control mice (n = 10/sex) were included in the main cohort and received three intraperitoneal injections of urethane in saline (1000 mg/kg/injection) on Days 1, 3, and 5. The test and control articles were administered at a dose volume of 10 mL/kg body weight.
Clinical signs, body weights, and food consumption were assessed for the main cohort animals to monitor animal health and any potential toxicity from pretomanid administration. In-life measurements were recorded in Provantis™ Version 9.4.6.3 (Instem, Philadelphia, PA).
All animals, including those in the TK cohort, were observed twice daily for morbidity and mortality. For animals in the main cohort, cage side observations were performed on the day of dosing within 2 hours after the last animal in each group was dosed (Days 1, 3, and 5 for positive control animals).

[3] = female, Tg.rasH2 [CByB6F1-Tg(HRAS)2Jic (+/- hemizygous c-Ha-ras)], mouse, in vivo, po, 10 mg/kg/day
[4] = female, Tg.rasH2 [CByB6F1-Tg(HRAS)2Jic (+/- hemizygous c-Ha-ras)], mouse, in vivo, po, 30 mg/kg/day
[5] = female, Tg.rasH2 [CByB6F1-Tg(HRAS)2Jic (+/- hemizygous c-Ha-ras)], mouse, in vivo, po, 80 mg/kg/day
[6] = female, Tg.rasH2 [CByB6F1-Tg(HRAS)2Jic, hemizygous c-Ha-ras], mouse, in vivo, po, 10 mg/kg/day
[7] = female, Tg.rasH2 [CByB6F1-Tg(HRAS)2Jic, hemizygous c-Ha-ras], mouse, in vivo, po, 30 mg/kg/day
[8] = female, Tg.rasH2 [CByB6F1-Tg(HRAS)2Jic, hemizygous c-Ha-ras], mouse, in vivo, po, 80 mg/kg/day
[9] = male, Tg.rasH2 [CByB6F1-Tg(HRAS)2Jic (+/- hemizygous c-Ha-ras)], mouse, in vivo, po, 5 mg/kg/day
[10] = male, Tg.rasH2 [CByB6F1-Tg(HRAS)2Jic (+/- hemizygous c-Ha-ras)], mouse, in vivo, po, 15 mg/kg/day
[11] = male, Tg.rasH2 [CByB6F1-Tg(HRAS)2Jic (+/- hemizygous c-Ha-ras)], mouse, in vivo, po, 40 mg/kg/day
[12] = male, Tg.rasH2 [CByB6F1-Tg(HRAS)2Jic, hemizygous c-Ha-ras], mouse, in vivo, po, 5 mg/kg/day
[13] = male, Tg.rasH2 [CByB6F1-Tg(HRAS)2Jic, hemizygous c-Ha-ras], mouse, in vivo, po, 15 mg/kg/day
[14] = male, Tg.rasH2 [CByB6F1-Tg(HRAS)2Jic, hemizygous c-Ha-ras], mouse, in vivo, po, 40 mg/kg/day

## O=[N+]([O-])c1cn2c(n1)OC[C@@H](OCc1ccc(OC(F)(F)F)cc1)C2 [Pretomanid, (6S)-2-nitro-6-{[4-(trifluoromethoxy)benzyl]oxy}-6,7-dihydro-5H-imidazo[2,1-b][1,3]oxazine]
[1]; male, CD-1(ICR) BR, mouse, single oral dose 2000 mg/kg, plasma
  Cmax: 36000 ng/mL
[1]; male, CD-1(ICR) BR, mouse, single oral dose 2000 mg/kg, plasma, read-out: Mean AUClast
  AUC(0-t): 1140 µg·h/mL
[1]; single oral 125 to 2000 mg/kg
  Dose proportionality of plasma exposure (Cmax and AUC): increased less than proportionally with dose level
[2]; Group 3F, female, 10 mg/kg/d
  Early death: cause of death: Multicentric hemangiosarcoma
  Early death: day of death: 184
  Early death: interpretation: Natural death
[2]; Group 5F, female, 30 mg/kg/d
  Early death: cause of death: Caught in feeder
  Early death: day of death: 7
  Early death: interpretation: Accidental
[2]; Group 7F, female, 80 mg/kg/d (two animals)
  Early death: interpretation: Natural death
[2]; [3]
  Incidence of lung adenoma, multiple: 0%
  Incidence of lung adenoma, single: 0%
  Incidence of lung carcinoma: 0%
  Incidence of lung tumors, combined: 0%
  Incidence of thymus, thymoma: 4%
  Incidence of urethra papilloma: 0%
[2]; [4]
  Incidence of Harderian gland carcinoma: 0%
  Incidence of lung adenoma, multiple: 0%
  Incidence of lung adenoma, single: 4%
  Incidence of lung carcinoma: 0%
  Incidence of lung tumors, combined: 4%
  Incidence of thymus, thymoma: 0%
  Incidence of urethra papilloma: 0%
[2]; [5]
  Incidence of Harderian gland carcinoma: 8%
  Incidence of lung adenoma, multiple: 0%
  Incidence of lung adenoma, single: 0%
  Incidence of lung carcinoma: 8%
  Incidence of lung tumors, combined: 8%
  Incidence of thymus, thymoma: 0%
  Incidence of urethra papilloma: 4%
[2]; [6]
  Incidence of Harderian gland adenoma: 0%
  Incidence of Harderian gland carcinoma: 4%
  Incidence of hemangiosarcoma, combined: 8%
  Incidence of hemangiosarcoma, multicentric (includes abdominal skin and thoracic wall): 4%
  Incidence of hemangiosarcoma, spleen: 0%
  Incidence of hemangiosarcoma, uterus: 4%
  Incidence of hemangiosarcoma, vagina: 0%
[2]; [7]
  Incidence of Harderian gland adenoma: 8%
  Incidence of hemangiosarcoma, combined: 4%
  Incidence of hemangiosarcoma, multicentric (includes abdominal skin and thoracic wall): 0%
  Incidence of hemangiosarcoma, spleen: 0%
  Incidence of hemangiosarcoma, uterus: 0%
  Incidence of hemangiosarcoma, vagina: 4%
[2]; [8]
  Incidence of Harderian gland adenoma: 0%
  Incidence of hemangiosarcoma, combined: 8%
  Incidence of hemangiosarcoma, multicentric (includes abdominal skin and thoracic wall): 0%
  Incidence of hemangiosarcoma, spleen: 8%
  Incidence of hemangiosarcoma, uterus: 0%
  Incidence of hemangiosarcoma, vagina: 0%
[2]; females, high-dose (80 mg/kg/day)
  Survival rate: 92%
[2]; females, low-dose (10 mg/kg/day)
  Survival rate: 96%
[2]; females, mid-dose (30 mg/kg/day)
  Survival rate: 100%
[2]; [9]
  Incidence of Harderian gland adenoma: 4%
  Incidence of Harderian gland carcinoma: 0%
  Incidence of hemangiosarcoma, combined: 4%
  Incidence of hemangiosarcoma, kidney: 4%
  Incidence of hemangiosarcoma, spinal cord, lumbar: 0%
  Incidence of hemangiosarcoma, spleen: 0%
[2]; [10]
  Incidence of Harderian gland adenoma: 0%
  Incidence of hemangiosarcoma, combined: 0%
  Incidence of hemangiosarcoma, kidney: 0%
  Incidence of hemangiosarcoma, spinal cord, lumbar: 0%
  Incidence of hemangiosarcoma, spleen: 0%
[2]; [11]
  Incidence of Harderian gland adenoma: 0%
  Incidence of hemangiosarcoma, combined: 12%
  Incidence of hemangiosarcoma, kidney: 0%
  Incidence of hemangiosarcoma, spinal cord, lumbar: 0%
  Incidence of hemangiosarcoma, spleen: 12%
[2]; [12]
  Incidence of lung adenoma, multiple: 0%
  Incidence of lung adenoma, single: 20%
  Incidence of lung carcinoma: 0%
  Incidence of lung tumors, combined: 20%
[2]; [13]
  Incidence of Harderian gland carcinoma: 0%
  Incidence of lung adenoma, multiple: 0%
  Incidence of lung adenoma, single: 8%
  Incidence of lung carcinoma: 0%
  Incidence of lung tumors, combined: 8%
[2]; [14]
  Incidence of Harderian gland carcinoma: 4%
  Incidence of lung adenoma, multiple: 0%
  Incidence of lung adenoma, single: 4%
  Incidence of lung carcinoma: 0%
  Incidence of lung tumors, combined: 4%
[2]; males, high-dose (40 mg/kg/day)
  Survival rate: 100%
[2]; males, low-dose (5 mg/kg/day)
  Survival rate: 100%
[2]; males, mid-dose (15 mg/kg/day)
  Survival rate: 100%
[2]; mouse, in vivo
  Incidence of hemangiosarcoma vs vehicle control: did not significantly increase
  Incidence of lung tumors vs vehicle control: did not significantly increase
  Incidence of non-vascular and non-pulmonary tumors: did not significantly increase
  Non-neoplastic microscopic findings: did not produce non-neoplastic microscopic findings
[2]; mouse, in vivo, 30 mg/kg/day
  Mean food consumption from Day 1 to 183 vs vehicle control: significantly increased
[2]; mouse, in vivo, po
  Clinical signs of toxicity: did not produce clinical signs of toxicity
  Effect on food consumption: did not affect food consumption
